Reference: article PMC6038383, “Crystal structure of the spliceosomal DEAH-box ATPase Prp2” (Acta Crystallographica. Section D, Structural Biology, 2018)

Target: T1, Prp2 from C. thermophilum (ctPrp2), residues 270-921 (Thermochaetoides thermophila, UniProt G0SEG4)
T1 construct: gene CTHT_0063660; N-terminally truncated residues 270-921, GST tag cleaved with PreScission protease, expressed in E. coli Rosetta 2 (DE3)
T1 sequence (G0SEG4 270-921): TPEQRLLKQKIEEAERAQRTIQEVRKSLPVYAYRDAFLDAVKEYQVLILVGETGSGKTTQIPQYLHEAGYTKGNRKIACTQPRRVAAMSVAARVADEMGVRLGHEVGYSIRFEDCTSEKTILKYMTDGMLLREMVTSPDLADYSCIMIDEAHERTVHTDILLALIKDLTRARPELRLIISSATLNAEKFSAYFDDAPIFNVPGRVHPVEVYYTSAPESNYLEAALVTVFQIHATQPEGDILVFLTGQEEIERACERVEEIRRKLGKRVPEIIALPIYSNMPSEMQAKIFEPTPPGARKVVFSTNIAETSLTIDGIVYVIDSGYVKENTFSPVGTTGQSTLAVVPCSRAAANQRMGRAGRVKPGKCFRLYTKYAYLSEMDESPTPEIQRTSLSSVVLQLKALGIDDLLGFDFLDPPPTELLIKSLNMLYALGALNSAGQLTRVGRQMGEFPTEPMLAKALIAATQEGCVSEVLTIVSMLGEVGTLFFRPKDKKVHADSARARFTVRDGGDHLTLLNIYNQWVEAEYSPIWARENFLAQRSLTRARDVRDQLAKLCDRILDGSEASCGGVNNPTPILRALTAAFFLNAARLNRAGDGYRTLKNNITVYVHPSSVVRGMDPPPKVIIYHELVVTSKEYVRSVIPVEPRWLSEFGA
Test: isothermal titration calorimetry
Assay type: binding

Kd: 179 nM
SMILES: Nc1ncnc2c1ncn2[C@@H]1O[C@H](COP(=O)(O)OP(=O)(O)O)[C@@H](O)[C@H]1O [ADP]
